Results published in US20150368642A1, “LNA OLIGONUCLEOTIDE CARBOHYDRATE CONJUGATES” (HOFFMANN-LA ROCHE INC., priority 2013, published 2015).
l = locked nucleic acid (LNA); d = 2'-deoxy (DNA)

Legend:
ApoB mRNA = assay: Knock down of ApoB mRNA in liver and kidney (qPCR, Example 5); format: in vivo, C57BL6/J mice; details: mice; for knock down of ApoB mRNA: single iv or sc dose equimolar to 0.25 mg/kg, days 1-7, FIG. 8
Text: (§1) Capital letters are LNA nucleosides (such as beta-D-oxy LNA), lower case letters are a DNA nucleoside. Subscript s represents a phosphorothioate internucleoside linkage (region A). LNA cytosines are optionally 5-methyl cytosine. The 2PO linker (region B) is 5′ to the sequence region A, and comprises of two DNA nucleosides linked by phosphodiester linkage, with the internucleoside linkage between the 3′ DNA nucleoside of region A and the 5′ LNA nucleoside of region A also being phosphodiester. A linkage group (Y) may be used to link the conjugate group, when present, to region B, or A (SEQ ID NO 13 and 11). C57BL6/J mice were injected either iv or sc with a single dose saline or 0.25 mg/kg unconjugated LNA-antisense oligonucleotide (SEQ ID N012) or equimolar amounts of LNA antisense oligonucleotides conjugated to GalNAc1, GalNAc2, or cholesterol (2PO) and sacrificed at days 1-7 according to the table below (experimental design).
(§2) RNA was isolated from liver and kidney and subjected to qPCR with ApoB specific primers and probe to analyse for ApoB mRNA knockdown. The oligonucleotide content was measured using ELISA method and total cholesterol in serum was measured.
C57BL/6JBom female animals, app. 20 g at arrival, were dosed with 10 ml per kg BW (according to day 0 bodyweight) i.v. or s.c. of the compound formulated in saline or saline alone according to the table above.
The animals were anaesthetised with 70% CO2-30% O2 and sacrificed by cervical dislocation according to the above table. One half of the large liver lobe and one kidney were minced and submerged in RNAlater. The other half of liver and the other kidney was frozen and used for tissue analysis. […]
(§3) For each sample 0.5 μg total RNA was adjusted to (10.8 μl) with RNase free H2O and mixed with 2 μl random decamers (50 μM) and 4 μl dNTP mix (2.5 mM each dNTP) and heated to 70° C. for 3 min after which the samples were rapidly cooled on ice. […] Oligonucleotide content in liver and kidney was measured by sandwich ELISA method.

ApoB [1] = assay: Total cholesterol in serum (Example 5); format: in vivo, C57BL6/J mice; details: mice, iv and sc administration, versus SEQ ID NO 12 and 14, FIG. 9
Text: as §1, with “C57BL6/J mice were injected either iv or sc with a single dose saline or 0.25 mg/kg unconjugated LNA-antisense oligonucleotide (SEQ ID N012) or equimolar amounts of LNA antisense oligonucleotides conjugated to GalNAc1, GalNAc2, or cholesterol (2PO) and sacrificed at days 1-7 according to the table below (experimental design).” left out
as §2
Immediately before sacrifice retro-orbital sinus blood was collected using S-monovette Serum-Gel vials (Sarstedt, Nümbrecht, Germany) for serum preparation. Serum was analyzed for total cholesterol using ABX Pentra Cholesterol CP (Triolab, Brondby, Denmark) according to the manufacturer's instructions.

[2] = Oligonucleotide content in liver and kidney by sandwich ELISA (Example 5); format: in vivo, C57BL6/J mice; details: mice
Text: as §1, with “C57BL6/J mice were injected either iv or sc with a single dose saline or 0.25 mg/kg unconjugated LNA-antisense oligonucleotide (SEQ ID N012) or equimolar amounts of LNA antisense oligonucleotides conjugated to GalNAc1, GalNAc2, or cholesterol (2PO) and sacrificed at days 1-7 according to the table below (experimental design).” left out
RNA was isolated from liver and kidney and subjected to qPCR with ApoB specific primers and probe to analyse for ApoB mRNA knockdown. The oligonucleotide content was measured using ELISA method and total cholesterol in serum was measured. […]
as §3

ApoB [3] = assay: Non-human primate study, serum ApoB and LDL-C (ApoB conjugates); format: in vivo, cynomolgus monkeys; details: Example 7; single i.v. dose; FIG. 16
Protocol: (§4) The primary objective for this study is to investigate selected lipid markers over 7 weeks after a single slow bolus injection of anti-PCSK9 and anti-ApoB LNA conjugated to GalNac cluster (Conj2a) to cynomolgus monkeys and assess the potential toxicity of compounds in monkey. The compounds which were prepared in sterile saline (0.9%) at an initial concentration of 0.625 and 2.5 mg/ml).
(§5) Male (PCSK9) or female monkeys (ApoB) monkeys of at least 24 months old are used, and given free access to tap water and 180 g of MWM(E) SQC SHORT expanded diet (Dietex France, SDS, Saint Gratien, France) will be distributed daily per animal. The total quantity of food distributed in each cage will be calculated according to the number of animals in the cage on that day. In addition, fruit or vegetables will be given daily to each animal. The animals will be acclimated to the study conditions for a period of at least 14 days before the beginning of the treatment period. During this period, pre-treatment investigations will be performed. The animals are dosed i.v. at a dose if, for example, 0.25 mg/kg or 1 mg/kg. The dose volume will be 0.4 mL/kg. 2 animals are used per group. After three weeks, the data will be analyzed and a second group of animals using a higher or lower dosing regimen may be initiated—preliminary dose setting is 0.5 mg/kg and 1 mg/kg, or lower than that based on the first data set.
The dose formulations will be administered once on Day 1. Animals will be observed for a period of 7 weeks following treatment, and will be released from the study on Day 51. Day 1 corresponds to the first day of the treatment period. Clinical observations and body weight and food intake (per group) will be recorded prior to and during the study.
The following parameters will be determined for all surviving animals at the occasions indicated below: • full biochemistry panel (complete list below)—on Days −8, 15 and 50, • liver Safety (ASAT, ALP, ALAT, TBIL and GGT only)—on Days 4, 8, 22 and 36, • lipid profile (Total cholesterol, HDL-C, LDL-C and Triglycerides) and Apo-B only—on Days −1, 4, 8, 22, 29, 36, and 43.
Blood (approximately 1.0 mL) is taken into lithium heparin tubes (using the ADVIA 1650 blood biochemistry analyzer): Apo-B, sodium, potassium, chloride, calcium, inorganic phosphorus, glucose, HDL-C, LDL-C, urea, creatinine, total bilirubin (TBIL), total cholesterol, triglycerides, alkaline phosphatase (ALP), alanine aminotransferase (ALAT), aspartate aminotransferase (ASAT), creatine kinase, gamma-glutamyl transferase (GGT), lactate dehydrogenase, total protein, albumin, albumin/globulin ratio.
Other Analysis: WO2011009697 & WO2010142805 provides the methods for the following analysis: qPCR, PCSK9/ApoB mRNA analysis, Other analysis includes PCSK9/ApoB protein ELISA, serum Lp(a) analysis with ELISA (Mercodia No. 10-1106-01), tissue and plasma oligonucleotide analysis (drug content), Extraction of samples, standard- and QC-samples, Oligonucleotide content determination by ELISA. […] There was no indication of hepatotoxicity or nephrotoxicity with the ApoB targeting compounds.

PCSK9 = assay: Non-human primate study, serum PCSK9 protein ELISA; format: in vivo; details: cynomolgus monkeys, single dose, entire length of the study
Protocol: as §4
as §5, with “During this period, pre-treatment investigations will be performed. The animals are dosed i.v. at a dose if, for example, 0.25 mg/kg or 1 mg/kg. The dose volume will be 0.4 mL/kg. 2 animals are used per group.” left out
The dose formulations will be administered once on Day 1. […] Clinical observations and body weight and food intake (per group) will be recorded prior to and during the study. […]

miR-122 = assay: LNA antimiR GalNAc conjugates, miR122 knock down in mice; format: in vivo, mouse; details: for Aldo A and Bckdk mRNA: already in the low dose group (3×0.5 mg/kg), liver; for miR122 knock down in the liver: i.v. days 0, 2 and 4, day 7, compared to parent LNA; for total cholesterol levels: i.v. days 0, 2 and 4, serum pre-dose, day 4 and day 7
Protocol: (§6) An in vivo mouse study was performed using a total of 9 groups of mice (n=5). Each mouse was dosed i.v. on days 0, 2 and 4 with either 0.5 mg/kg or 2 mg/kg or equimolar doses of the GalNAc conjugated LNA's compared to parent LNA compound. A saline control group was included (see study set up in Tab. 1). Serum samples were taken 4 days pre administration, interim at day 4 and at endpoint day 7. Liver and kidney samples were stored in RNA later. Validation of miR122 knock down of miR122 was done as described in Obad Nat Genet. 2011 Mar. 20; 43(4):371-8 (FIG. 17). The cholesterol level in serum were analyzed as described in Elmen J, et al. LNA-mediated microRNA silencing in non-human primates. Nature. 2008; 452:896-899. (FIG. 18) and mRNA levels of two miR122 down regulated genes (Aldo A and Bckdk) were analyzed using standard QPCR assay techniques (FIG. 19). ALT was measured to assess tolerability of the compounds (FIG. 20).

[4] = ALT in final serum (antimiR-122 study); format: in vivo, mouse; details: mice, final serum day 7
Protocol: Serum analysis for ALT, AST and cholesterol was performed on the “Cobas INTEGRA 400 plus” clinical chemistry platform (Roche Diagnostics), using 10 μl of serum.
as §6

## SEQ ID NO 11: GsCsaststsgsgstsastsTsCsA, GalNAc cluster Conj2a; ApoB (GCATTGGTATTCA; listed as DNA, chemistry not fully specified)
ApoB mRNA
  knock down of ApoB mRNA: knock down of ApoB mRNA better than the unconjugated ApoB LNA
ApoB [1]
  total cholesterol in serum: better effect that the unconjugated and the cholesterol conjugated compounds
[2]; iv dosing
  specific activity (activity relative to liver uptake): higher specific activity than GalNAc 1 conjugate
ApoB [3]
  pharmacology (serum ApoB and LDL-C): did not exhibit significant pharmacology

## SEQ ID NO 13: GsCsaststsgsgstsastsTsCsA, GalNAc cluster Conj1a; ApoB (GCATTGGTATTCA; sugars from the 5' end l2 d8 l3, all phosphorothioate, methylation of C not given here; GalNAc cluster Conj1a conjugated)
ApoB mRNA; single dose 0.36 mg/kg
  knock down of ApoB mRNA, iv versus sc dosing: iv dosing is better than sc dosing
ApoB mRNA
  knock down of ApoB mRNA: knock down of ApoB mRNA better than the unconjugated ApoB LNA
ApoB [1]
  total cholesterol in serum: better effect that the unconjugated and the cholesterol conjugated compounds
[2]; iv and sc, FIG. 10
  tissue content of the oligonucleotides, uptake in liver: very much uptake in liver

## SEQ ID NO 28: AsAsTsgscstsascsasasasasCsCsCsA, GalNAc cluster Conj2a; PCSK9 (AATGCTACAAAACCCA; listed as DNA, chemistry not fully specified)
PCSK9
  down regulation of PCSK9 (and LDL-C), onset and duration: rapid and consistent down regulation of PCSK9 and LDL-C throughout the duration of the study

## SEQ ID NO 52: 5′-Conj1a^mCsAs^mCsAs^mCsTs^mCs^mC-3′ (CACACTCC; LNA, 5-methyl C, 5' GalNAc Conj1a, chemistry not fully specified)
miR-122
  Aldo A and Bckdk mRNA: up regulation of Aldo A and Bckdk mRNA
  miR122 knock down in the liver: remarkable improvement of miR122 knock down in the liver
  total cholesterol levels: decreased total cholesterol levels
[4]
  ALT: increase in ALT

## SEQ ID NO 54: 5′-Conj1a^mCsAs^mCsAs^mCsTs^mCs^mCca^mCsAs^mCsAs^mCsTs^mCs^mC-3′ (CACACTCCCACACACTCC; LNA, 5-methyl C, ca linker, 5' GalNAc Conj1a, chemistry not fully specified)
miR-122
  Aldo A and Bckdk mRNA: up regulation of Aldo A and Bckdk mRNA
  miR122 knock down in the liver: remarkable improvement of miR122 knock down in the liver
  total cholesterol levels: decreased total cholesterol levels
[4]
  ALT: tendency to improve
